{"source": "PubChem BioAssay AID1963965", "about": "(Molecular Pharmacology Branch, DTP, NCI, 2024);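 also: spheroids exposed to compounds for seven days before viability read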;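 as to viability, T/C: luminescence used as a proxy for viable cell amount; percent viability relative to DMSO vehicle control as 100%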", "test_system": "996289-038-R-J1-PDC spheroid viability", "assay": "Anticancer human tumor 996289-038-R-J1-PDC patient-derived colon adenocarcinoma cell line growth inhibition [PI3K]", "conditions": "spheroids with HUVEC and MSC; for viability, T/C: stronger effect = lower value", "text": "Combinatorial screen of targeted agents with the PI3K inhibitors inavolisib, alpelisib, duvelisib, and copanlisib in multi-cell type tumor spheroids\nA high-throughput screen of multi-cell type tumor spheroids was designed to identify active combinations of targeted small molecules and PI3K pathway inhibitors. Complex spheroids include a stromal component modeled by human endothelial cells (HUVEC) and fibroblasts modeled by human mesenchymal stem cells (MSCs). The concentration ranges selected for each drug and investigational agent were based upon clinically achievable concentrations if the clinical Cmax of the agent was known.\nCompounds. The drugs and investigational agents: inavolisib (NSC800729), alpelisib (NSC765974), duvelisib (NSC772469), copanlisib (NSC816437), ipatasertib (NSC767898), afuresertib (NSC778305), talazoparib (NSC767125), sapanisertib (NSC764658), selumetinib (NSC741078), tovorafenib (DAY101, NSC766906), vemurafenib (NSC761431), ravoxertinib (NSC781343), sotorasib (NSC818433), MRTX1133 (NSC 836407), abemaciclib (NSC 768073), palbociclib (NSC758247), venetoclax (NSC 766270), SY5609 (NSC837396), enzalutamide (NSC755605), and darolutamide (NSC825331), were obtained from the National Cancer Institute (NCI) Developmental Therapeutics Program Chemical Repository. The FDA-approved anticancer drug set is available from the NCI Developmental Therapeutics Program. […] The stock solutions were prepared in dimethyl sulfoxide (DMSO, Sigma-Aldrich, St. Louis, MO, cat. D2650) at 800-fold the tested concentration and stored at -70 degrees C prior to their use. All drugs and investigational agents were tested over a range starting from a high concentration at or near the clinical Cmax and decreasing in half-log increments. If the clinical Cmax for an agent had not been determined, the highest concentration tested was 10 microM.\nCell Culture. All cells were maintained in an incubator at 37 degrees C and 5% CO2 with 95% humidity. The PDC lines were cultured according to standard operating procedures established by the NCI PDMR (https://pdmr.cancer.gov/sops/default.htm). All PDCs were thawed and cultured in Matrigel-coated flasks prepared with a working solution of 1X Ham's F-12 nutrient mix, without supplementation (Invitrogen, Waltham, MA, cat. 11765054), 100 U/mL penicillin-streptomycin (Invitrogen, cat. 15140122), and 2.5% Matrigel (Corning Inc., Corning, NY, cat. 354248) for the first three passages. The 354836-022-R-J1-PDC, 475296-252-R-J1-PDC, and 997726-040-R-J2-PDC lines were cultured in 6A media, which includes advanced DMEM/F-12 (Thermo Fisher Scientific, cat. 12634028), 10 mM HEPES (Thermo Fisher Scientific, cat. 15630080), 1X GlutaMAX supplement (Thermo Fisher Scientific, cat. 35050061), 0.1 mg/mL primocin (InvivoGen, San Diego, CA, cat. ant-pm-2), 10% defined fetal bovine serum, heat inactivated (HyClone Laboratories Inc., Logan, UT, cat. SH30070.03HI), 50% L-WRN conditioned media (ATCC, cat. CRL-3276), 1.25 mM N-Acetyl-L-cysteine (Sigma-Aldrich, cat. A9165), 10 mM nicotinamide (Sigma-Aldrich, cat. N0636), 1X B-27 supplement (Thermo Fisher Scientific, cat. 17504044), 1X N-2 supplement (Thermo Fisher Scientific, cat. 17502048), and 10 microM Y-27632 dihydrochloride (Tocris Bioscience, Bristol, United Kingdom, cat. 1254). The 624824-186-R-J2-PDC line was cultured in 6C/Colon 1B media, which includes all 6A media components plus 50 ng/mL human EGF recombinant protein (Thermo Fisher Scientific, cat. PHG0311). […]", "data": [{"smiles": "C=CC(=O)N1CCN(c2nc(=O)n(-c3c(C)ccnc3C(C)C)c3nc(-c4c(O)cccc4F)c(F)cc23)C(C)C1", "note": "(stereo not given) + COc1c(OCCCN2CCOCC2)ccc2c3n(c(=NC(=O)c4cnc(N)nc4)nc12)CCN3", "values": [{"measurement": "IC50", "setting": "curve of first compound, second compound 0.00316 µM", "result": "> 10", "unit": "µM"}, {"measurement": "IC50", "setting": "curve of first compound, second compound 0.01 µM", "result": "> 10", "unit": "µM"}, {"measurement": "IC50", "setting": "curve of first compound, second compound 0.0316 µM", "result": "> 10", "unit": "µM"}, {"measurement": "IC50", "setting": "curve of first compound, second compound 0.1 µM", "result": "> 10", "unit": "µM"}, {"measurement": "IC50", "setting": "curve of first compound, second compound 0.316 µM", "result": "< 0.0316", "unit": "µM"}, {"measurement": "IC50", "setting": "curve of first compound, second compound 1 µM", "result": "< 0.0316", "unit": "µM"}, {"measurement": "viability, T/C", "setting": "second compound 0.00316 µM, first compound 0.0316 µM", "result": 99.8, "unit": "%"}, {"measurement": "viability, T/C", "setting": "second compound 0.00316 µM, first compound 0.1 µM", "result": 99.1, "unit": "%"}, {"measurement": "viability, T/C", "setting": "second compound 0.00316 µM, first compound 0.316 µM", "result": 118, "unit": "%"}, {"measurement": "viability, T/C", "setting": "second compound 0.00316 µM, first compound 1 µM", "result": 129, "unit": "%"}, {"measurement": "viability, T/C", "setting": "second compound 0.00316 µM, first compound 3.16 µM", "result": 137, "unit": "%"}, {"measurement": "viability, T/C", "setting": "second compound 0.00316 µM, first compound 10 µM", "result": 104, "unit": "%"}, {"measurement": "viability, T/C", "setting": "second compound 0.01 µM, first compound 0.0316 µM", "result": 99.8, "unit": "%"}, {"measurement": "viability, T/C", "setting": "second compound 0.01 µM, first compound 0.1 µM", "result": 92.7, "unit": "%"}, {"measurement": "viability, T/C", "setting": "second compound 0.01 µM, first compound 0.316 µM", "result": 108, "unit": "%"}, {"measurement": "viability, T/C", "setting": "second compound 0.01 µM, first compound 1 µM", "result": 99.9, "unit": "%"}, {"measurement": "viability, T/C", "setting": "second compound 0.01 µM, first compound 3.16 µM", "result": 106, "unit": "%"}, {"measurement": "viability, T/C", "setting": "second compound 0.01 µM, first compound 10 µM", "result": 109, "unit": "%"}, {"measurement": "viability, T/C", "setting": "second compound 0.0316 µM, first compound 0.0316 µM", "result": 82.6, "unit": "%"}, {"measurement": "viability, T/C", "setting": "second compound 0.0316 µM, first compound 0.1 µM", "result": 88.3, "unit": "%"}, {"measurement": "viability, T/C", "setting": "second compound 0.0316 µM, first compound 0.316 µM", "result": 85.4, "unit": "%"}, {"measurement": "viability, T/C", "setting": "second compound 0.0316 µM, first compound 1 µM", "result": 81.5, "unit": "%"}, {"measurement": "viability, T/C", "setting": "second compound 0.0316 µM, first compound 3.16 µM", "result": 90.7, "unit": "%"}, {"measurement": "viability, T/C", "setting": "second compound 0.0316 µM, first compound 10 µM", "result": 85.6, "unit": "%"}, {"measurement": "viability, T/C", "setting": "second compound 0.1 µM, first compound 0.0316 µM", "result": 60.7, "unit": "%"}, {"measurement": "viability, T/C", "setting": "second compound 0.1 µM, first compound 0.1 µM", "result": 52.7, "unit": "%"}, {"measurement": "viability, T/C", "setting": "second compound 0.1 µM, first compound 0.316 µM", "result": 62.5, "unit": "%"}, {"measurement": "viability, T/C", "setting": "second compound 0.1 µM, first compound 1 µM", "result": 74.3, "unit": "%"}, {"measurement": "viability, T/C", "setting": "second compound 0.1 µM, first compound 3.16 µM", "result": 70.8, "unit": "%"}, {"measurement": "viability, T/C", "setting": "second compound 0.1 µM, first compound 10 µM", "result": 71.9, "unit": "%"}, {"measurement": "viability, T/C", "setting": "second compound 0.316 µM, first compound 0.0316 µM", "result": 37.7, "unit": "%"}, {"measurement": "viability, T/C", "setting": "second compound 0.316 µM, first compound 0.1 µM", "result": 42.5, "unit": "%"}, {"measurement": "viability, T/C", "setting": "second compound 0.316 µM, first compound 0.316 µM", "result": 38.2, "unit": "%"}, {"measurement": "viability, T/C", "setting": "second compound 0.316 µM, first compound 1 µM", "result": 42, "unit": "%"}, {"measurement": "viability, T/C", "setting": "second compound 0.316 µM, first compound 3.16 µM", "result": 48.2, "unit": "%"}, {"measurement": "viability, T/C", "setting": "second compound 0.316 µM, first compound 10 µM", "result": 40.5, "unit": "%"}, {"measurement": "viability, T/C", "setting": "second compound 1 µM, first compound 0.0316 µM", "result": 21, "unit": "%"}, {"measurement": "viability, T/C", "setting": "second compound 1 µM, first compound 0.1 µM", "result": 22.6, "unit": "%"}, {"measurement": "viability, T/C", "setting": "second compound 1 µM, first compound 0.316 µM", "result": 20.4, "unit": "%"}, {"measurement": "viability, T/C", "setting": "second compound 1 µM, first compound 1 µM", "result": 22, "unit": "%"}, {"measurement": "viability, T/C", "setting": "second compound 1 µM, first compound 3.16 µM", "result": 23.3, "unit": "%"}, {"measurement": "viability, T/C", "setting": "second compound 1 µM, first compound 10 µM", "result": 20.7, "unit": "%"}]}, {"smiles": "Cn1nccc1Nc1nccc(-c2ccn(C(CO)c3ccc(Cl)c(F)c3)c(=O)c2)n1", "note": "(stereo not given)", "values": [{"measurement": "viability, T/C", "setting": "compound 0.0316 µM", "result": "98.7% [middle of 4 runs]"}, {"measurement": "viability, T/C", "setting": "compound 0.1 µM", "result": "97% [middle of 4 runs]"}, {"measurement": "viability, T/C", "setting": "compound 0.316 µM", "result": "112% [middle of 4 runs]"}, {"measurement": "viability, T/C", "setting": "compound 1 µM", "result": "90.8% [middle of 4 runs]"}, {"measurement": "viability, T/C", "setting": "compound 3.16 µM", "result": "76.5% [middle of 4 runs]"}, {"measurement": "viability, T/C", "setting": "compound 10 µM", "result": "64.7% [middle of 4 runs]"}, {"measurement": "IC50", "setting": "curve of compound", "result": "> 10", "unit": "µM"}]}, {"smiles": "CC1(C)CCC(Nc2ncc(C(F)(F)F)c(-c3c[nH]c4c(P(C)(C)=O)c(C#N)ccc34)n2)CN1", "note": "(stereo not given)", "values": [{"measurement": "viability, T/C", "setting": "compound 0.1 µM", "result": "86.5% [middle of 4 runs]"}, {"measurement": "viability, T/C", "setting": "compound 0.316 µM", "result": "86% [middle of 4 runs]"}, {"measurement": "viability, T/C", "setting": "compound 1 µM", "result": "88.9% [middle of 4 runs]"}, {"measurement": "viability, T/C", "setting": "compound 3.16 µM", "result": "91.5% [middle of 4 runs]"}, {"measurement": "viability, T/C", "setting": "compound 10 µM", "result": "26.9% [middle of 4 runs]"}, {"measurement": "IC50", "setting": "curve of compound", "result": "6.64 µM [middle of 4 runs]"}]}]}
